# What was measured:
# U266 = assay: CCK-8 antiproliferative assay, U266; conditions: Homo sapiens, U-266, 72 h, read-out: Antiproliferative IC50 U266
# Procedure: (§1) The proliferation of cancer cells was tested by CCK-8 assay. Briefly, cells were seeded in a 96-well plate with about 5 × 10^3 cells in each well. […] The light absorbance at 450 nm was measured by using an Opsys microplate reader (Dynex Technologies, Chantilly, VA, United States).
# HDAC2 = HDAC2 (Homo sapiens, UniProt Q92769); assay: In vitro HDAC inhibitory assay, recombinant HDAC2
# A549 = assay: CCK-8 antiproliferative assay, A549; conditions: Homo sapiens, A549, 72 h, read-out: Antiproliferative IC50 A549
# Procedure: as §1
# K562 cells [1] = assay: CCK-8 antiproliferative assay, K562; conditions: Homo sapiens; for IC50: K562, 72 h, read-out: Antiproliferative IC50 K562; for inhibition at 2 µM: K562, read-out: K562 percentage inhibitory rate
# Procedure: (§2) The proliferation of cancer cells was tested by CCK-8 assay. Briefly, cells were seeded in a 96-well plate with about 5 × 10^3 cells in each well. In the K652 cell screening, cells were treated with 2.0 μM of tested compounds. […] The light absorbance at 450 nm was measured by using an Opsys microplate reader (Dynex Technologies, Chantilly, VA, United States).
# HDAC6 = target: T1, HDAC6 (Homo sapiens, UniProt Q9UBN7); assay: In vitro HDAC inhibitory assay, recombinant HDAC6
# T1 sequence (Q9UBN7 1-1215): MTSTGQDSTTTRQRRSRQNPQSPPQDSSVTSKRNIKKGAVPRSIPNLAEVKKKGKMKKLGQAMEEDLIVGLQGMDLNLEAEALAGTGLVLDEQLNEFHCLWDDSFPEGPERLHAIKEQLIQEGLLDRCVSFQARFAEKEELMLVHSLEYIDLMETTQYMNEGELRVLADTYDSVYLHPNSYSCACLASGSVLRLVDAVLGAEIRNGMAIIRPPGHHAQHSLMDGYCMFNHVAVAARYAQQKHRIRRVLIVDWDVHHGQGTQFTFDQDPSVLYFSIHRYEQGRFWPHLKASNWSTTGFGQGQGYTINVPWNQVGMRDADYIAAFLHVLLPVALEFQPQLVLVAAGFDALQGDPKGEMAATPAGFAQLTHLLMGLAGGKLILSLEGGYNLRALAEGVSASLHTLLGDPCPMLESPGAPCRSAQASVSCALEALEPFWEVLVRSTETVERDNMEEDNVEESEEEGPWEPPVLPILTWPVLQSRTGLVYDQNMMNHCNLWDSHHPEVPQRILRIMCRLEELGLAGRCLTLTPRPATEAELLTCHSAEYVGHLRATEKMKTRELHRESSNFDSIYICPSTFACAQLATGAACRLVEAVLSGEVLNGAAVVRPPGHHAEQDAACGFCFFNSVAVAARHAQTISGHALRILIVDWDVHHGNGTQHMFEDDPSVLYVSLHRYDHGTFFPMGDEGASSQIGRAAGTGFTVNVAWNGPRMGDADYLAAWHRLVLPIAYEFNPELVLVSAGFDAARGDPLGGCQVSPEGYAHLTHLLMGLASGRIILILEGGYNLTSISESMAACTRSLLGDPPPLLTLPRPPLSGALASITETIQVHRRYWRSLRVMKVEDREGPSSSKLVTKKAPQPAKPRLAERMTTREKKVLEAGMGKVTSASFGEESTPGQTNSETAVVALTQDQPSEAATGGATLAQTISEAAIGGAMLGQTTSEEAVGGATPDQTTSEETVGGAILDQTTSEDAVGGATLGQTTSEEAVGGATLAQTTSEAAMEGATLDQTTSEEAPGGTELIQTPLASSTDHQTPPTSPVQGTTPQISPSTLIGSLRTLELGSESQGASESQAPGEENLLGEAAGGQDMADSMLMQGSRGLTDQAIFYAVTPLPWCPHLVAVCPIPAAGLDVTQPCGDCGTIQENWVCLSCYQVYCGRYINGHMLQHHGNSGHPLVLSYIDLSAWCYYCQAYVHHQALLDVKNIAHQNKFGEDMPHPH
# K562 cells [2] = assay: Cell cycle analysis by flow cytometry (PI staining); type: cell-based; conditions: 24 h; for G2/M phase ratio of K562 cells: control 3.44%, third value in Figure 3; for phase of induced cell cycle arrest: K562 cells, 1 and 2 µM
# Procedure: Deregulation of the cell cycle divided into G0/G1 phase, S phase, and G2/M phase is one of the most frequent alterations during cancer development. Thus, the cell cycle analysis is usually performed in the anticancer evaluation.
# After treatment, cells were collected and fixed with 70% pre-cold ethanol in PBS and stored at −20°C overnight. […] Finally, DNA content was measured by flow cytometry (FACSAriaIII, Becton Dickinson, United States). The data was analyzed and fitted by ModFit software.
# MCF-7 = assay: CCK-8 antiproliferative assay, MCF-7; conditions: Homo sapiens, MCF7, 72 h, read-out: Antiproliferative IC50 MCF-7
# Procedure: as §1
# MDA-MB-231 = assay: CCK-8 antiproliferative assay, MDA-MB-231; conditions: Homo sapiens, MDA-MB-231, 72 h, read-out: Antiproliferative IC50 MDA-MB-231
# Procedure: as §2
# K562 cells [3] = assay: Cell apoptosis analysis by flow cytometry (Annexin V-BV421 / 7-AAD); conditions: 24 h, control 1.14%
# Procedure: Cells were incubated with Annexin V-BV421(Becton Dickinson, United States) and 7-AAD (Becton Dickinson, United States) double labeling for 30 min in the dark at room temperature and measured by flow cytometry (FACSAriaIII, Becton Dickinson, United States). The data was analyzed by using Flowjo-V10 software.
# HDAC3 = HDAC3 (Homo sapiens, UniProt O15379); assay: In vitro HDAC inhibitory assay, recombinant HDAC3
# Fadu = assay: CCK-8 antiproliferative assay, Fadu; conditions: Homo sapiens, 72 h, read-out: Antiproliferative IC50 Fadu
# Procedure: as §2
# U937 = assay: CCK-8 antiproliferative assay, U937; conditions: Homo sapiens, U-937, 72 h, read-out: Antiproliferative IC50 U937
# Procedure: as §2
# HepG2 = assay: CCK-8 antiproliferative assay, HepG2; conditions: Homo sapiens, HepG2, 72 h, read-out: Antiproliferative IC50 HepG2
# Procedure: as §2
# MDA-MB-468 = assay: CCK-8 antiproliferative assay, MDA-MB-468; conditions: Homo sapiens, MDA-MB-468, 72 h, read-out: Antiproliferative IC50 MDA-MB-468
# Procedure: as §1
# A2780 = assay: CCK-8 antiproliferative assay, A2780; conditions: Homo sapiens, A2780, 72 h, read-out: Antiproliferative IC50 A2780
# Procedure: as §1
# [4] = system: Hela nucleus extract containing a mixture of HDAC isoforms; assay: In vitro HDAC inhibitory assay, HeLa cell nuclear extract screening at 2 µM; type: biochemical; conditions: 2.0 µM compound, mean of three experiments
# Procedure: The HDAC enzyme inhibitory activities of synthesized compounds were evaluated against Hela nucleus extract containing a mixture of HDAC isoforms. Percentage inhibitory rate (PIR) was calculated to determine the activity of tested compounds (Table 1).
# All HDAC enzymes were purchased from BPS Bioscience. […] The reaction was terminated by adding 100 μl of imaging agent containing trypsin and trichostatin A (TSA). After standing for 20 min, the fluorescence intensity was measured at the excitation and emission wavelengths of 360 and 460 nm with a microplate reader. The inhibition rate was calculated from the fluorescence intensity readings of the test wells relative to the control wells, and the IC50 curve and value were determined by GraphPad Prism 6.0 software.
# HDAC1 = HDAC1 (Homo sapiens, UniProt Q13547); assay: In vitro HDAC inhibitory assay, recombinant HDAC1
# Chain of HDAC1 (Q13547 whole entry): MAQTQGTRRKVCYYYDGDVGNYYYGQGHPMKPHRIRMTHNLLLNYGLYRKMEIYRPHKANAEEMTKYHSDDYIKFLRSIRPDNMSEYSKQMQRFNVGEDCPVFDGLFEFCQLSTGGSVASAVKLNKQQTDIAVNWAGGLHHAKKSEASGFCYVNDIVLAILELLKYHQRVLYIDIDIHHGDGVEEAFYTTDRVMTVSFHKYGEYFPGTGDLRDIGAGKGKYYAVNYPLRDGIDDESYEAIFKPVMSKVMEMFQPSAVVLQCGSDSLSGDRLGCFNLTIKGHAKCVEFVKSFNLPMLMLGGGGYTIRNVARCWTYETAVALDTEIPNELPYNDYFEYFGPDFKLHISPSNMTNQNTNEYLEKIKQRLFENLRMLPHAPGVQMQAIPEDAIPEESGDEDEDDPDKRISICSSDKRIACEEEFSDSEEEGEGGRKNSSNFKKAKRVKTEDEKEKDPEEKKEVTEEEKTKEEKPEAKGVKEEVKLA
# Chain of HDAC3 (O15379 whole entry): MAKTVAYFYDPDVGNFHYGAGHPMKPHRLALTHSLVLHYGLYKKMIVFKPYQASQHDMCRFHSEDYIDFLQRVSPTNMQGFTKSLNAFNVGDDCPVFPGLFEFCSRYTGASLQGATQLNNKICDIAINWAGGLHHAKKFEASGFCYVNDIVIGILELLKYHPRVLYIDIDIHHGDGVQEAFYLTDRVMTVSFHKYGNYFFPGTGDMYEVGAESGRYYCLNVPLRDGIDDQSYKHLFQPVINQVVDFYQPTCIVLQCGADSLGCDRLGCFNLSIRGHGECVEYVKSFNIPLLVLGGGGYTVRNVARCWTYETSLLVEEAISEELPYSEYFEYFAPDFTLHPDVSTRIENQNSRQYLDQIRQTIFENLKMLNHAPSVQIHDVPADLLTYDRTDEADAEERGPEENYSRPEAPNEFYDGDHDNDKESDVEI
# Chain of HDAC3 (Q9Y618 395-489 partner limits assumed): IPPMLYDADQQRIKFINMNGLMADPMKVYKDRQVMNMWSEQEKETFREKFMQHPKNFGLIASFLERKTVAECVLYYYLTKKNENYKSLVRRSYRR
# Chain of HDAC2 (Q92769 whole entry): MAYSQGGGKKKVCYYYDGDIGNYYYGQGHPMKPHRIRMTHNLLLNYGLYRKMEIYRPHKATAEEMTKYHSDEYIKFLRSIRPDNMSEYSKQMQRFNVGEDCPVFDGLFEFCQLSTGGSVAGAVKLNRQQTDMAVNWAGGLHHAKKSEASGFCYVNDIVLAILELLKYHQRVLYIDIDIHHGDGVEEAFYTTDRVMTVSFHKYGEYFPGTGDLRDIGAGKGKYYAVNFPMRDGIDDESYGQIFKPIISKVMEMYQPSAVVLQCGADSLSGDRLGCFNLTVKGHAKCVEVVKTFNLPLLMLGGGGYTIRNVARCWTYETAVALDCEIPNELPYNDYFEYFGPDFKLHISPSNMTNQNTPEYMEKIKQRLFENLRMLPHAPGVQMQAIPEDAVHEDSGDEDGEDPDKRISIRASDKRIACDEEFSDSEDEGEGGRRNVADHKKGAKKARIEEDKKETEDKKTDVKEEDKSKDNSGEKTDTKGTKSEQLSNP
IC50 (U266) [µM],IC50 (HDAC2) [µM],IC50 (A549) [µM],IC50 (K562 cells [1]) [µM],IC50 (HDAC6) [µM],IC50 (MCF-7) [µM],IC50 (MDA-MB-231) [µM],IC50 (HDAC3) [µM],IC50 (U937) [µM],IC50 (HepG2) [µM],IC50 (MDA-MB-468) [µM],IC50 (A2780) [µM],melting point [°C],SMILES,inhibition at 2 µM (K562 cells [1]) [%],phase of induced cell cycle arrest (K562 cells [2]),"apoptotic cell proportion (apoptotic rate) (K562 cells [3]; K562, 1 μM) [%]","apoptotic cell proportion (apoptotic rate) (K562 cells [3]; K562, 2 μM) [%]","apoptotic cell proportion (apoptotic rate) (K562 cells [3]; K562, 4 μM) [%]",IC50 (Fadu) [µM],HDACs percentage inhibitory rate (PIR) [4] [%],other results
1.08 ± 0.02,> 1000,2.83 ± 0.17,1.02 ± 0.01,> 1000,5.66 ± 0.26,4.15 ± 0.22,24.5 ± 1.24,1.11 ± 0.03,2.16 ± 0.13,2.89 ± 0.13,3.86 ± 0.29,,"O=C(NO)c1ccc(N2CCN(C(=O)c3cc(-c4ccc(-c5ccccc5)cc4)nc4ccccc34)CC2)cc1 [Compound D28, 4-(4-(2-([1,1′-Biphenyl]-4-yl)Quinoline-4-Carbonyl)Piperazin-1-yl)-N-Hydroxybenzamide]",71.9 ± 2.32,G2/M phase,10.10,15.53,27.92,3.22 ± 0.14,68.00 ± 2.49,G2/M phase ratio of K562 cells (K562 cells [2]; 1 μM): 5.95%; G2/M phase ratio of K562 cells (K562 cells [2]; 2 μM): 32.57%
2.87 ± 0.11,184 ± 4.32,> 50,5.27 ± 0.14,> 1000,12.6 ± 0.97,> 50,0.477 ± 0.01,4.22 ± 0.08,> 50,> 50,> 50,223.3 to 224.2,"CCCNNC(=O)c1ccc(N2CCN(C(=O)c3cc(-c4ccc(-c5ccccc5)cc4)nc4ccccc34)CC2)cc1 [Compound D29, 4-(4-(2-([1,1′-Biphenyl]-4-yl)Quinoline-4-Carbonyl)Piperazin-1-yl)-N′-Propylbenzohydrazide]",62.4 ± 3.87,,,,,> 50,62.14 ± 2.11,IC50 (HDAC1): 32.6 ± 1.97 µM

# The remaining lines, values behind:
SMILES,IC50 (U266) [µM],IC50 (HDAC2) [µM],IC50 (A549) [µM],IC50 (K562 cells [1]) [µM],IC50 (HDAC6) [µM],IC50 (MCF-7) [µM],IC50 (MDA-MB-231) [µM],IC50 (HDAC3) [µM],IC50 (U937) [µM],IC50 (HepG2) [µM],IC50 (MDA-MB-468) [µM],IC50 (A2780) [µM],melting point [°C],inhibition at 2 µM (K562 cells [1]) [%],phase of induced cell cycle arrest (K562 cells [2]),"apoptotic cell proportion (apoptotic rate) (K562 cells [3]; K562, 1 μM) [%]","apoptotic cell proportion (apoptotic rate) (K562 cells [3]; K562, 2 μM) [%]","apoptotic cell proportion (apoptotic rate) (K562 cells [3]; K562, 4 μM) [%]",IC50 (Fadu) [µM],HDACs percentage inhibitory rate (PIR) [4] [%],other results
"CCCCNNC(=O)c1ccc(N2CCN(C(=O)c3cc(-c4ccc(-c5ccccc5)cc4)nc4ccccc34)CC2)cc1 [Compound D30, 4-(4-(2-([1,1′-Biphenyl]-4-yl)Quinoline-4-Carbonyl)Piperazin-1-yl)-N′-Butylbenzohydrazide]",3.68 ± 0.16,8.13 ± 0.26,> 50,7.66 ± 0.25,> 1000,18.8 ± 1.22,> 50,0.1 ± 0.003,5.87 ± 0.24,> 50,> 50,> 50,225.3 to 227.3,65.8 ± 2.95,,,,,> 50,69.35 ± 3.44,IC50 (HDAC1): 1.43 ± 0.02 µM
"O=C(CCCCCCC(=O)Nc1ccccc1)NO [SAHA, Vorinostat, reference compound]",,,,1.55 ± 0.02,,,,,1.68 ± 0.03,1.87 ± 0.11,,,,,G0/G1 phase,1.39,3.36,19.75,2.17 ± 0.92,,
"O=C(NO)c1ccc(N2CCN(C(=O)c3cc(-c4ccc(NC(=O)c5ccccc5Cl)cc4)nc4ccccc34)CC2)cc1 [Compound D23, 2-Chloro-N-(4-(4-(4-(4-(Hydroxycarbamoyl)Phenyl)Piperazine-1-Carbonyl)Quinolin-2-yl)Phenyl)Benzamide]",,,,,,,,,,,,,167.2 to 167.8,61.92 ± 0.42,,,,,,62.91 ± 2.26,

# Source: paper PMC9333195, “Discovery of 2-Phenylquinoline-4-Carboxylic Acid Derivatives as Novel Histone Deacetylase Inhibitors” (Frontiers in Chemistry, 2022)
